Data set [1] relates to transformed human keratinocyte cell line (FEP 1811). The data set can be described thus: Clonogenic survival cell culture assay for radioprotective activity (cells irradiated to 12 Gy). It is filed as cell-based. To be noted: FEP 1811 cells, 12 Gy 137Cs gamma at 0.6 Gy per minute, irradiation started 30 minutes after drug addition, total drug exposure 60 minutes. The protocol: (§1) The assay involves the transformed human keratinocyte cell line (FEP 1811) (as described by Smith et al (6)) and evaluation of cytotoxicity and radioprotective activity using the clonogenic survival endpoint. The details are described in detail in Martin et al (4) (the disclosure of which is included herein in its entirety by way of reference), but briefly, mid-log phase monolayer cultures are incubated with various concentrations of the test drugs for one hour, after which the monolayers are washed and dispersed into single cell suspensions using pronase, and finally appropriate numbers of cells are dispensed into Petri dishes. Colonies are counted after eight days incubation. For radioprotection studies, the monolayer cultures are irradiated in a ^137Cs-Gamma-cell radiation source to a dose of 12 Gy. The irradiation (with a dose rate of 0.6 Gy per minute) is started 30 minutes after addition of the test drug. After completion of irradiation, incubation of cultures is continued until the total time of exposure to the drug reaches 60 minutes. Cultures are then washed and plated for clonogenic survival as described for the cytotoxicity experiments. The experiments include untreated cultures as controls, and the plating efficiency of these controls is used to adjust that of the test cultures, in order to calculate the overall clonogenic survival.
However, for some of the compounds, the survival decreases at higher drug concentrations, due to cytotoxicity. Non-linear regression analysis of the data, for example that in FIG. 2, generates a parameter denoted the protection factor (PF), which is the ratio of the maximum survival to the radiation-only (zero drug) survival. PF is therefore a measure of radioprotective efficacy. The C50 and PF values, and for a number of the compounds are collected in Table 1, with standard deviations (SD) for those compounds that have been studied in replicate experiments.

Data set [2] has the same test system. The data set can be described thus: Clonogenic survival cell culture assay for cytotoxicity (un-irradiated cells). It is filed as cell-based. As to conditions: un-irradiated FEP 1811 cells, one hour drug incubation, colonies counted after eight days; concentrations in FIG. 1 plotted in μM; read-out: cytotoxicity C50 (drug concentration corresponding to 50% survival). As to the method: as §1
In general each experiment involves investigation of 4 or 5 different test concentrations of the drug under study, with and without irradiation. The data analysis for the experiments with un-irradiated cells generates curves showing the relationship between cell survival and drug concentration (FIG. 1), from which the drug concentration corresponding to 50% survival (C50) is determined.

In the case of `CNc1cc(F)c(-c2nc3cc(-c4nc5cc(N6CCN(C)CC6)ccc5[nH]4)ccc3[nH]2)cc1F` [Example 10, 2,5-difluoro-4-methylamino-1-(5′-(5″-(4′″-methylpiperazin-1′″-yl)benzimidazol-2″-yl)benzimidazol-2′-yl)benzene], the “radioprotection PF (protection factor: ratio of the maximum survival to the radiation-only (zero drug) survival)” value in data set [1] worked out at 9.62. In addition, the IC50 in data set [2] came out at 51.4 µM.

With `CN1CCN(c2ccc3[nH]c(-c4ccc5[nH]c(-c6c(F)cc(N(C)C)cc6F)nc5c4)nc3c2)CC1` [Example 2, 2,6-difluoro-4-dimethylamino-1-(5′-(5″-(4′″-methylpiperazin-1′″-yl)benzimidazol-2″-yl)benzimidazol-2′-yl)benzene], the “radioprotection PF (protection factor: ratio of the maximum survival to the radiation-only (zero drug) survival)” value in data set [1] was 6.4. The IC50 in data set [2] is 25 µM.

For the compound `CN1CCN(c2ccc3[nH]c(-c4ccc5[nH]c(-c6ccc(F)cc6)nc5c4)nc3c2)CC1` [Example 6, 4-fluoro-1-{5′-[5″-(4′″-methylpiperazin-1′″-yl)benzimidazol-2″-yl]benzimidazol-2′-yl}benzene], in data set [1], the “radioprotection PF (protection factor: ratio of the maximum survival to the radiation-only (zero drug) survival)” value is 4.5. In addition, the IC50 in data set [2] came out at 34 µM.

On to `CN1CCN(c2ccc3[nH]c(-c4ccc5[nH]c(-c6ccc(N(C)C)c(F)c6)nc5c4)nc3c2)CC1` [Example 7, 4-dimethylamino-3-fluoro-1-(5′-(5″-(4′″-methylpiperazin-1′″-yl)benzimidazol-2″-yl)benzimidazol-2′-yl)benzene], for which the “radioprotection PF (protection factor: ratio of the maximum survival to the radiation-only (zero drug) survival)” value in data set [1] was 3.2. For the same compound, in data set [2], the IC50 was found to be 26 µM.

As for `Cc1cc(N(C)C)ccc1-c1nc2ccc(-c3nc4ccc(N5CCN(C)CC5)cc4[nH]3)cc2[nH]1` [methylproamine, reference compound], in data set [1], the “radioprotection PF (protection factor: ratio of the maximum survival to the radiation-only (zero drug) survival)” value is 10. The IC50 in data set [2] came to 19.3 µM.

In the case of `CNc1ccc(F)c(-c2nc3cc(-c4nc5cc(N6CCN(C)CC6)ccc5[nH]4)ccc3[nH]2)c1` [Example 8, 2-fluoro-5-methylamino-1-(5′-(5″-(4′″-methylpiperazin-1′″-yl)benzimidazol-2″-yl)benzimidazol-2′-yl)benzene], the “radioprotection PF (protection factor: ratio of the maximum survival to the radiation-only (zero drug) survival)” value in data set [1] is given as 15.5. The IC50 in data set [2] came out at 151 µM.

In the case of `CN1CCN(c2ccc3[nH]c(-c4ccc5[nH]c(-c6ccc(N(C)C)cc6Cl)nc5c4)nc3c2)CC1` [Example 4, 2-chloro-4-dimethylamino-1-(5′-(5″-(4′″-methylpiperazin-1′″-yl)benzimidazol-2″-yl)benzimidazol-2′-yl)benzene], the “radioprotection PF (protection factor: ratio of the maximum survival to the radiation-only (zero drug) survival)” value in data set [1] was determined as 5.5. Further, the IC50 in data set [2] came to 18 µM.

`CN1CCN(c2ccc3[nH]c(-c4ccc5[nH]c(-c6ccc(N(C)C)cc6F)nc5c4)nc3c2)CC1` [Example 1, 4-dimethylamino-2-fluoro-1-(5′-(5″-(4′″-methylpiperazin-1′″-yl)benzimidazol-2″-yl)benzimidazol-2′-yl)benzene]: in data set [1], the “radioprotection PF (protection factor: ratio of the maximum survival to the radiation-only (zero drug) survival)” value is listed as 9.3. In addition, the IC50 in data set [2] came to 28 µM.

As for `CNc1ccc(-c2nc3cc(-c4nc5cc(N6CCN(C)CC6)ccc5[nH]4)ccc3[nH]2)c(F)c1` [Example 3, 2-fluoro-4-methylamino-1-(5′-(5″-(4′″-methylpiperazin-1′″-yl)benzimidazol-2″-yl)benzimidazol-2′-yl)benzene], the “radioprotection PF (protection factor: ratio of the maximum survival to the radiation-only (zero drug) survival)” value in data set [1] was 7. Besides, in data set [2], the IC50 was 218 µM.

Turning to `CN1CCN(c2ccc3[nH]c(-c4ccc5[nH]c(-c6cc(N(C)C)ccc6F)nc5c4)nc3c2)CC1` [Example 9, 5-dimethylamino-2-fluoro-1-(5′-(5″-(4′″-methylpiperazin-1′″-yl)benzimidazol-2″-yl)benzimidazol-2′-yl)benzene], the “radioprotection PF (protection factor: ratio of the maximum survival to the radiation-only (zero drug) survival)” value in data set [1] stood at 16.7. In data set [2], the IC50 amounted to 21.9 µM.

As to `COc1ccc(-c2nc3cc(-c4nc5cc(N6CCN(C)CC6)ccc5[nH]4)ccc3[nH]2)cc1F` [Example 5, 3-fluoro-4-methoxy-1-(5′-(5″-(4′″-methylpiperazin-1′″-yl)benzimidazol-2″-yl)benzimidazol-2′-yl)benzene], in data set [1], the “radioprotection PF (protection factor: ratio of the maximum survival to the radiation-only (zero drug) survival)” value is 2.1. Also, the IC50 in data set [2] came out at 91 µM.
